Values after ≈ are worked out from the molar mass of the structure shown. Read-outs that look alike come from different tables or passages of the source.
Tests used:
Solubility in PBS = type: physicochemical
How it was run: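 The PBS solution was ultracentrifuged and the supernatant analyzed by HPLC. Its peak area was divided by that of a 50 μM peptide DMSO reference injection and multiplied by 50 uM to give solubility.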

[1] = target: T1, beta-catenin/TCF4 engagement (Homo sapiens, UniProt P35222); assay: Nano-BRET target engagement assay (B-cat-Halo & TCF4-Luc in HEK293 cells); type: cell-based
T1 construct: expressed in transfected cells; host or cells: HEK293
T1 sequence (P35222 1-781): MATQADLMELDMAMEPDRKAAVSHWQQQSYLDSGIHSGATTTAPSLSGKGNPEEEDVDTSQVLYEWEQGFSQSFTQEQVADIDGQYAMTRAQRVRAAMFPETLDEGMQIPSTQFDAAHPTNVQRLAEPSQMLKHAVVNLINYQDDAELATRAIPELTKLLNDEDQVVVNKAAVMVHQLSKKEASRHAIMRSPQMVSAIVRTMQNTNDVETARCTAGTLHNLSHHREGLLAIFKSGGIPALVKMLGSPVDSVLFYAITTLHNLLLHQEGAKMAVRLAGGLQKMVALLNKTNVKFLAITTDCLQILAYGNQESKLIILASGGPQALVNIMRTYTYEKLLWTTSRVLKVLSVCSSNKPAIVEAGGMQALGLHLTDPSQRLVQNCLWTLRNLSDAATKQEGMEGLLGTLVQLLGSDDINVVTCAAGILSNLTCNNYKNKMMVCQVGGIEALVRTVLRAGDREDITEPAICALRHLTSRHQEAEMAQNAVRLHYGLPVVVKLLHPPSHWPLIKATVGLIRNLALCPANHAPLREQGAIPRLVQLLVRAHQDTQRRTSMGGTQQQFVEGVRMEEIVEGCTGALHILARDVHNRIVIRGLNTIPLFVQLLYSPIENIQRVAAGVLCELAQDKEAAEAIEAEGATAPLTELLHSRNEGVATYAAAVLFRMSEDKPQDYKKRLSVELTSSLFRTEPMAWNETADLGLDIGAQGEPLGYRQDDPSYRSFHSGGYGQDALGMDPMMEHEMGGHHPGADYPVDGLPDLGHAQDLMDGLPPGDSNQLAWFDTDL

CHI Log D procedure = type: physicochemical; settings: for CHI Log D: pH 7.4
[2] = target: T2, full-length beta-Catenin (Uniprot ID P35222) (Homo sapiens, UniProt P35222); assay: Fluorescence polarization IC50 (beta-catenin / 5FAM-TCF4 10-53 competition); type: binding
T2 construct: 10 nM full-length beta-Catenin (Uniprot ID P35222)
T2 sequence (P35222 1-781): T1 sequence (P35222 1-781)

[3] = absolute IC50, read-out: NanoBRET Abs IC50
[4] = fluorescence polarization, read-out: beta-Catenin FP IC50

Solubility (Solubility in PBS)	IC50 [1, 3]	CHI Log D (CHI Log D procedure)	IC50 [2, 4]	IC50 ([2]; read-out: FP EC50)	inhibition at 10 µM ([1]; HEK293, @ 10 uM, read-out: NanoBRET % inh @ 10 uM)	Solubility (Solubility in PBS; Solubility (uM))	chromatographic logD (CHI Log D procedure; pH 7.4, CHI Log D)	IC50 ([1]; read-out: NanoBRET IC50)	Structure (SMILES)
47 µM (≈ 87.6 µg/mL)	> 20000 nM	2.374	36 nM	36 nM	–	–	–	–	CC(=O)N1CCC[C@]12CC=CCCCC1(CCCC=CCCCCCC[C@@](C)(C(=O)N[C@@H](Cc3ccccc3)C(=O)N[C@@H](Cc3csc4ccccc34)C(=O)N[C@@H](Cc3c[nH]cn3)C(N)=O)NC(=O)[C@H](CC(N)=O)NC(=O)[C@H](Cc3ccccc3)NC(=O)[C@H](C)NC(=O)[C@H](C)NC(=O)[C@H](CC(=O)O)NC(=O)[C@H](CC(=O)O)NC1=O)NC(=O)[C@H](CC(C)C)NC(=O)[C@H](CC(=O)O)NC2=O (stereo partly drawn) [I-564, Ac-PL3-Asp-Leu-B5-Asp-Asp-Ala-Ala-Phe-Asn-S8-Phe-BztA-His-NH2]
26 µM (≈ 48.5 µg/mL)	26000 nM	2.435	13 nM	13 nM	–	–	–	–	CC(=O)N1CCC[C@]12CC=CCCCC1(CCCC=CCCCCCC[C@@](C)(C(=O)N[C@@H](Cc3ccccc3)C(=O)N[C@@H](Cc3csc4ccccc34)C(=O)N[C@@H](Cc3c[nH]cn3)C(N)=O)NC(=O)[C@H](CC(N)=O)NC(=O)[C@H](Cc3ccccc3)NC(=O)[C@H](C)NC(=O)[C@H](C)NC(=O)[C@H](CC(=O)O)NC(=O)[C@H](CC(=O)O)NC1=O)NC(=O)[C@H](CC(C)C)NC(=O)[C@H](CC(=O)O)NC2=O (stereo partly drawn) [I-565, Ac-PL3-Asp-Leu-B5-Asp-Asp-Ala-Ala-Phe-Asn-S8-Phe-BztA-His-NH2]
50 µM (≈ 92.1 µg/mL)	–	2.243	37 nM	37 nM	8.9%	–	–	–	CC(=O)N1CCC[C@]12CC=CCCCC1(CCCC=CCCCCCC[C@@](C)(C(=O)N[C@@H](Cc3ccccc3)C(=O)N[C@@H](Cc3csc4ccccc34)C(=O)N[C@@H](CCC(N)=O)C(N)=O)NC(=O)[C@H](CC(N)=O)NC(=O)[C@H](Cc3ccccc3)NC(=O)[C@H](C)NC(=O)[C@H](C)NC(=O)[C@H](CC(=O)O)NC(=O)[C@H](CC(=O)O)NC1=O)NC(=O)[C@H](C(C)C)NC(=O)[C@H](CC(=O)O)NC2=O (stereo partly drawn) [I-567, Ac-PL3-Asp-Val-B5-Asp-Asp-Ala-Ala-Phe-Asn-S8-Phe-BztA-Gln-NH2]
24 µM (≈ 44.7 µg/mL)	15600 nM	2.245	32 nM	32 nM	–	–	–	–	CC[C@@H]1NC(=O)[C@H](CC(=O)O)NC(=O)[C@]2(CC=CCCCC3(CCCC=CCCCCCC[C@@](C)(C(=O)N[C@@H](Cc4ccccc4)C(=O)N[C@@H](Cc4csc5ccccc45)C(=O)N[C@@H](Cc4c[nH]cn4)C(N)=O)NC(=O)[C@H](CCC(N)=O)NC(=O)[C@H](Cc4ccccc4)NC(=O)[C@H](C)NC(=O)[C@H](C)NC(=O)[C@H](CCC(=O)O)NC(=O)[C@H](CC(=O)O)NC3=O)NC1=O)CCCN2C(C)=O (stereo partly drawn) [I-571, Ac-PL3-Asp-Abu-B5-Asp-Glu-Ala-Ala-Phe-Gln-S8-Phe-BztA-His-NH2]
49 µM (≈ 89.5 µg/mL)	33300 nM	2.116	36 nM	36 nM	–	–	–	–	CC[C@@H]1NC(=O)[C@H](CC(=O)O)NC(=O)[C@]2(CC=CCCCC3(CCCC=CCCCCCC[C@@](C)(C(=O)N[C@@H](Cc4ccccc4)C(=O)N[C@@H](Cc4csc5ccccc45)C(=O)N[C@@H](CCC(N)=O)C(N)=O)NC(=O)[C@H](CC(N)=O)NC(=O)[C@H](Cc4ccccc4)NC(=O)[C@H](C)NC(=O)[C@H](C)NC(=O)[C@H](CC(=O)O)NC(=O)[C@H](CC(=O)O)NC3=O)NC1=O)CCCN2C(C)=O (stereo partly drawn) [I-573, Ac-PL3-Asp-Abu-B5-Asp-Asp-Ala-Ala-Phe-Asn-S8-Phe-BztA-Gln-NH2]
48 µM (≈ 88.1 µg/mL)	> 20000 nM	2.16	36 nM	36 nM	–	–	–	–	CC[C@@H]1NC(=O)[C@H](CC(=O)O)NC(=O)[C@]2(CC=CCCCC3(CCCC=CCCCCCC[C@@](C)(C(=O)N[C@@H](Cc4ccccc4)C(=O)N[C@@H](Cc4csc5ccccc45)C(=O)N[C@@H](Cc4c[nH]cn4)C(N)=O)NC(=O)[C@H](CC(N)=O)NC(=O)[C@H](Cc4ccccc4)NC(=O)[C@H](C)NC(=O)[C@H](C)NC(=O)[C@H](CC(=O)O)NC(=O)[C@H](CC(=O)O)NC3=O)NC1=O)CCCN2C(C)=O (stereo partly drawn) [I-574, Ac-PL3-Asp-Abu-B5-Asp-Asp-Ala-Ala-Phe-Asn-S8-Phe-BztA-His-NH2]
46 µM (≈ 86 µg/mL)	11100 nM	2.348	23 nM	23 nM	–	–	–	–	CC(=O)N1CCC[C@]12CC=CCCCC1(CCCC=CCCCCCC[C@@](C)(C(=O)N[C@@H](Cc3ccccc3)C(=O)N[C@@H](Cc3csc4ccccc34)C(=O)N[C@@H](CCC(N)=O)C(N)=O)NC(=O)[C@H](CC(N)=O)NC(=O)[C@H](Cc3ccccc3)NC(=O)[C@H](C)NC(=O)[C@H](C)NC(=O)[C@H](CCC(=O)O)NC(=O)[C@H](CC(=O)O)NC1=O)NC(=O)[C@H](CC(C)C)NC(=O)[C@H](CC(=O)O)NC2=O (stereo partly drawn) [I-576, Ac-PL3-Asp-Leu-B5-Asp-Glu-Ala-Ala-Phe-Asn-S8-Phe-BztA-Gln-NH2]
47 µM (≈ 87.9 µg/mL)	10400 nM	2.376	13 nM	13 nM	–	–	–	–	CC(=O)N1CCC[C@]12CC=CCCCC1(CCCC=CCCCCCC[C@@](C)(C(=O)N[C@@H](Cc3ccccc3)C(=O)N[C@@H](Cc3csc4ccccc34)C(=O)N[C@@H](CCC(N)=O)C(N)=O)NC(=O)[C@H](CC(N)=O)NC(=O)[C@H](Cc3ccccc3)NC(=O)[C@H](C)NC(=O)[C@H](C)NC(=O)[C@H](CCC(=O)O)NC(=O)[C@H](CC(=O)O)NC1=O)NC(=O)[C@H](CC(C)C)NC(=O)[C@H](CC(=O)O)NC2=O (stereo partly drawn) [I-577, Ac-PL3-Asp-Leu-B5-Asp-Glu-Ala-Ala-Phe-Asn-S8-Phe-BztA-Gln-NH2]
–	15800 nM	–	17.5 nM	–	–	22 µM (≈ 41.3 µg/mL)	2.5	–	CC(=O)N1CCC[C@]12CC=CCCCC1(CCCC=CCCCCCC[C@@](C)(C(=O)N[C@@H](Cc3ccccc3)C(=O)N[C@@H](Cc3csc4ccccc34)C(=O)N[C@@H](Cc3c[nH]cn3)C(N)=O)NC(=O)[C@H](CC(N)=O)NC(=O)[C@H](Cc3ccccc3)NC(=O)[C@H](C)NC(=O)[C@H](C)NC(=O)[C@H](CC(=O)O)NC(=O)[C@H](CC(=O)O)NC1=O)NC(=O)[C@H](CC(C)(C)C)NC(=O)[C@H](CC(=O)O)NC2=O (stereo partly drawn) [I-582, Ac-PL3-Asp-Npg-B5-Asp-Asp-Ala-Ala-Phe-Asn-S8-Phe-BztA-His-NH2]
48 µM (≈ 91.6 µg/mL)	12000 nM	2.688	35 nM	35 nM	–	–	–	5800 nM	CC(=O)N1CCC[C@]12CC=CCCCC1(CCCC=CCCCCCC[C@@](C)(C(=O)N[C@@H](Cc3ccccc3)C(=O)N[C@@H](Cc3csc4ccccc34)C(=O)N[C@@H](CCC(N)=O)C(N)=O)NC(=O)[C@H](CC(N)=O)NC(=O)[C@H](Cc3ccccc3)NC(=O)[C@H](C)NC(=O)[C@H](C)NC(=O)[C@H](CCC(=O)O)NC(=O)[C@H](CC(=O)O)NC1=O)NC(=O)[C@H](CC1CCCCC1)NC(=O)[C@H](CC(=O)O)NC2=O (stereo partly drawn) [I-620, Ac-PL3-Asp-Cha-B5-Asp-Glu-Ala-Ala-Phe-Asn-S8-Phe-BztA-Gln-NH2]
40 µM (≈ 71.4 µg/mL)	30000 nM	3.109	36 nM	685 nM	–	–	–	–	CC(=O)N1CCC[C@]12CC=CCCCC1(CCCC=CCCCCCC[C@@](C)(C(=O)N[C@@H](Cc3ccccc3)C(=O)N[C@@H](Cc3csc4ccccc34)C(N)=O)NC(=O)[C@H](CCCNC(N)=O)NC(=O)[C@H](Cc3ccccc3)NC(=O)[C@H](C)NC(=O)[C@H](C)NC(=O)[C@H](CCC(=O)O)NC(=O)[C@H](CC(=O)O)NC1=O)NC(=O)[C@H](CC(C)C)NC(=O)[C@H](CC(=O)O)NC2=O (stereo partly drawn) [I-629, Ac-PL3-Asp-Leu-B5-Asp-Glu-Ala-Ala-Phe-Cit-S8-Phe-BztA-NH2]
47 µM (≈ 91.2 µg/mL)	15000 nM	2.121	20 nM	20 nM	–	–	–	–	CC[C@H](C)[C@@H]1NC(=O)[C@H](CC(=O)O)NC(=O)[C@]2(CC=CCCCC3(CCCC=CCCCCCC[C@@](C)(C(=O)N[C@@H](Cc4ccccc4)C(=O)N[C@@H](Cc4csc5ccccc45)C(=O)N[C@@H](CCC(N)=O)C(N)=O)NC(=O)[C@H](CCC(N)=O)NC(=O)[C@H](Cc4ccccc4)NC(=O)[C@H](C)NC(=O)[C@H](CCC(N)=O)NC(=O)[C@H](CCC(=O)O)NC(=O)[C@H](CC(=O)O)NC3=O)NC1=O)CCCN2C(C)=O (stereo partly drawn) [I-654, Ac-PL3-Asp-Ile-B5-Asp-Glu-Gln-Ala-Phe-Gln-S8-Phe-BztA-Gln-NH2]

Reference: US20240116985A1, “STAPLED PEPTIDES AND METHODS THEREOF” (priority 2020, published 2024)
